Molecular target: Programmed cell death protein 1/Programmed cell death 1 ligand 1 (Homo sapiens, UniProt Q15116+Q9NZQ7)
Assay: Homogeneous Time-Resolved Fluorescence (HTRF) Binding Assay: 1. The compound was formulated to 10 concentrations with a 3-fold gradient with 100% DMSO.2. The solution of the compound in DMSO was added to Dilute Buffer, mixed thoroughly, then transferred to a 96-well plate.3. PD-L1 was diluted with Dilute Buffer, then added to the above 96-well plate.4. PD-1 was diluted with Dilute Buffer and added to the above 96-well plate, which was then incubated at room temperature for 30 minutes.5. A portion of anti-tag1-Eu and a portion of anti-tag2-XL665 were added to Detection Buffer, mixed thoroughly and transferred to the above 96-well plate.6. The mixture in the above 96-well plate was incubated at room temperature for 1 to 24 hours.7. HTRF values were read with Envision.
Assay type: protein-complex assay

Chain of Programmed cell death protein 1/Programmed cell death 1 ligand 1 (Q15116 whole entry): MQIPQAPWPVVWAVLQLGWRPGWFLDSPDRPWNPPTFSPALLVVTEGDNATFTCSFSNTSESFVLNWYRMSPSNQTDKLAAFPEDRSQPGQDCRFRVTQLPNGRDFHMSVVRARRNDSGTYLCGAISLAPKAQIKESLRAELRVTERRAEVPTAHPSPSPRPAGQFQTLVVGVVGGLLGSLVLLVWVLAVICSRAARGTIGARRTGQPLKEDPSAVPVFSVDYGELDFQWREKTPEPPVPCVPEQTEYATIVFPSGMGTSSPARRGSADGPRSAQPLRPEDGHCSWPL
Chain of Programmed cell death protein 1/Programmed cell death 1 ligand 1 (Q9NZQ7 whole entry): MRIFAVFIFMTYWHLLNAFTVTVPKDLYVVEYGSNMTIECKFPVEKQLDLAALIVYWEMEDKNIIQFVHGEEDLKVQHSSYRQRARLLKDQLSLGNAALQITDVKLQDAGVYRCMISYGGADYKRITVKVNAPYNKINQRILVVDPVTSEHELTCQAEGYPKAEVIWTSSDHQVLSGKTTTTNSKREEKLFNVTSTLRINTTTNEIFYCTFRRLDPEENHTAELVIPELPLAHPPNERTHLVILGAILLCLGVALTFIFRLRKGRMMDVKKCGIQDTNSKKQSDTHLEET

Row | SMILES | IC50 [nM]
1 | COc1cc(/C=C/c2cccc(-c3ccccc3)c2C)cc(OC)c1CN[C@@H](C)C(=O)O | 170
2 | COc1cc(/C=C/c2cccc(-c3ccccc3)c2C)cc(OC)c1CN1CCCC[C@H]1C(=O)O | 60
3 | COc1cc(/C=C/c2cccc(-c3ccccc3)c2C)cc(OC)c1CN[C@H](CO)C(=O)O | 80
4 | COc1cc(/C=C/c2cccc(-c3ccccc3)c2C)cc(OC)c1CN[C@@H](CO)C(=O)O | 50
